{"source": "patent US20220401317A1", "about": "“HYPOCHLORITE COMPOSITION AND SYSTEM AND METHOD FOR PREPARING A HYPOCHLORITE COMPOSITION AND USE OF THE SAME” (KONINKLIJKE PHILIPS N.V., priority 2019, published 2022)", "origin": "cited, not measured here", "data": [{"smiles": "OCl", "note": "[hypochloric acid]", "values": [{"measurement": "pKa", "value": 7.53}]}]}
